Test results from US12697311B2, “Tetrahydrocurcumin compositions, methods of making, and methods of using the same” (Renibus Therapeutics, Inc., priority 2019, dated 2026).
Entries after “also recorded” stand apart in the source; their conditions may differ.

Assay: Plasma pharmacokinetics after single oral dose in male rats
Format: in vivo
Details: single 100 mg oral dose; for AUC(0-t) / Cmax / Tmax: rat, plasma, N=3; for AUC(0-t) / Cmax: geometric mean; for Tmax: median
Method: The d6-THCu was formulated at a concentration of 10% w/w in the amounts and ratios provided below:
Compositions were prepared according to the following process. Set up the 5 L jacketed reaction vessel and Julabo circulation heater. Begin heating the Julabo to 90° C. Dispense Phosal 75 SA, Captex 300, and Labrasol ALF (Items 2, 3, and 4) into appropriately sized containers. Add sthe Phosal 75 SA, Captex 300, and Labrasol ALF to the 5 L reaction vessel. Mix contents until visually homogenous and product reaches a temperature of 85° C.±5° C. Add Tetrahydrocurcumin to vessel containing Phosal 75 SA, Captex 300, and Labrasol ALF while stirring. Mix until completely dissolved and visually homogenous. Reduce the Julabo temperature and allow the solution to cool to 30° C.±5° C. while continuing to stir. Package product by adding 50 mL to appropriate 60 mL bottles. Continue until product is exhausted.
The d6-THCu version of the compound provides a desirable release profile compared to non-deuterated THCu. Compositions were prepared using THCu as well as d6-THCu and their pk profiles were compared.
The plasma concentrations of THCu and THCu-d6 was compared by administering single doses of 100 mg to male rats. […] Individual animal pharmacokinetic parameters comparing THCu and d6-THCu is shown in FIG. 4, and statistics for the individual animal pharmacokinetic parameters is shown in FIG. 5.
Graphs of individual animal plasma concentrations versus time are shown in FIGS. 6-7 (linear axes) and FIGS. 8-9 (semi-logarithmic axes).

Row | Structure (SMILES) | AUC(0-t) | Cmax | Tmax | plasma concentration versus time / release profile (compared with non-deuterated THCu)
1 | [2H]C([2H])([2H])Oc1cc(CCC(=O)CC(=O)CCc2ccc(O)c(OC([2H])([2H])[2H])c2)ccc1O [THCu-d6, d6-Tetrahydrocurumin] | 43000 ng·h/mL | 2820 ng/mL | 24 h | more stable release profile than the non-deuterated version; also recorded: no burst release of active agent after administration
2 | COc1cc(CCC(=O)CC(=O)CCc2ccc(O)c(OC)c2)ccc1O [THCu, tetrahydrocurcumin] | 38300 ng·h/mL | 4070 ng/mL | 1 h | –
